Consider 17 molecules from the supplement of paper PMC8967900.

Each structure is given as a SMILES string.
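Further: ALL cell lines in 384-well plates, five doses spanning 10,000-fold, each plate scaled between vehicle and 100 µmol/L benzalkonium chloride controls, sDSS an adapted area-under-curve metric.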

One test relates to SUP-B15. Description: selective drug sensitivity score (sDSS, relative to normal bone marrow) (sDSS (score)); higher = more potent and effective on the cell line relative to normal bone marrow cells. The settings on record: 72 h.
Regarding `CN(C)Cc1ccc(S(=O)(=O)n2ccc(/C=C/C(=O)NO)c2)cc1` [Resminostat] (top concentration 10000 nM), the “selective drug sensitivity score” value was found to be 9.74.

On to `COc1cc(OC)c(/C=C/S(=O)(=O)Cc2ccc(OC)c(NCC(=O)O)c2)c(OC)c1` [Rigosertib] (top concentration 10000 nM), for which the “selective drug sensitivity score” value came to 14.6.

As to `COc1ccc(CCc2nc3cc(-c4c(C)noc4C)ccc3n2C[C@H](C)N2CCOCC2)cc1Cl` [SGC-CBP30] (top concentration 25000 nM), the “selective drug sensitivity score” value worked out at 6.28.

For the molecule `CCS(=O)(=O)c1cccc(-c2cc(C(=O)NC3CCN(C)CC3)c(C)c3[nH]c4ncc(C)cc4c23)c1` [TAK-901] (top concentration 1000 nM), the “selective drug sensitivity score” value came out at 11.

For the molecule `Nc1nc(NC2CC2)cc(-c2cccc(Cl)c2Cl)n1` [TH588] (top concentration 25000 nM), the “selective drug sensitivity score” value is 7.62.

With `CC(=O)Nc1ccc(C(=O)Nc2ccccc2N)cc1` [Tacedinaline] (top concentration 1000 nM), the “selective drug sensitivity score” value turned out to be 4.58.

As for `Cn1ncnc1[C@H]1c2n[nH]c(=O)c3cc(F)cc(c23)N[C@@H]1c1ccc(F)cc1` [Talazoparib] (top concentration 1000 nM), the “selective drug sensitivity score” value is 20.1.

Take `COc1cccc2c1c(O)c(C(=O)N(C)c1ccc(C(F)(F)F)cc1)c(=O)n2C` [Tasquinimod] (top concentration 10000 nM): the “selective drug sensitivity score” value amounted to 2.78.

Regarding `Nc1nc2[nH]cnc2c(=S)[nH]1` [Thioguanine] (top concentration 10000 nM), the “selective drug sensitivity score” value worked out at 19.2.

For the molecule `CC#CC(=O)N1CC[C@@H](n2c(=O)n(-c3ccc(Oc4ccccc4)cc3)c3c(N)ncnc32)C1` [Tirabrutinib] (top concentration 1000 nM), the “selective drug sensitivity score” value is 14.7.

Take `CC(C)C[C@@H](C(=O)N[C@H](C(=O)OC1CCCC1)c1ccccc1)[C@H](O)C(=O)NO` [Tosedostat] (top concentration 10000 nM): the “selective drug sensitivity score” value is 11.

As for `CS(=O)(=O)c1ccc(-c2cnc(N)c(C(=O)Nc3ccccc3)n2)cc1` [VE-821] (top concentration 10000 nM), the “selective drug sensitivity score” value turned out to be 6.94.

Turning to `CNC(=O)c1ccccc1Nc1cc(Nc2ccc(N3CCOCC3)cc2OC)ncc1C(F)(F)F` [VS-4718] (top concentration 10000 nM), the “selective drug sensitivity score” value is -3.

On to `Cc1cccc(-c2[nH]c(CNc3ccccc3F)nc2-c2ccc3ncnn3c2)n1` [Vactosertib (TEW-7197)] (top concentration 2500 nM), for which the “selective drug sensitivity score” value was found to be 9.

Regarding `O=C(/C=C\n1cnc(-c2cc(C(F)(F)F)cc(C(F)(F)F)c2)n1)NNc1ccccn1` [Verdinexor] (top concentration 1000 nM), the “selective drug sensitivity score” value is 11.2.

Consider `CC[C@@H]1C(=O)N(C)c2cnc(Nc3ccc(C(=O)N[C@H]4CC[C@H](N5CCN(CC6CC6)CC5)CC4)cc3OC)nc2N1C(C)C` [Volasertib] (top concentration 1000 nM), for which the “selective drug sensitivity score” value amounted to 19.2.

Consider `O=C(CCCCCCC(=O)Nc1ccccc1)NO` [Vorinostat] (top concentration 10000 nM), for which the “selective drug sensitivity score” value was 11.9.

A further test concerns HPB-ALL. The description is as above. Particulars: 72 h.
Take `CN(C)Cc1ccc(S(=O)(=O)n2ccc(/C=C/C(=O)NO)c2)cc1` [Resminostat] (top concentration 10000 nM): the “selective drug sensitivity score” value amounted to 6.24.

For the molecule `COc1cc(OC)c(/C=C/S(=O)(=O)Cc2ccc(OC)c(NCC(=O)O)c2)c(OC)c1` [Rigosertib] (top concentration 10000 nM), the “selective drug sensitivity score” value is 13.5.

Take `COc1ccc(CCc2nc3cc(-c4c(C)noc4C)ccc3n2C[C@H](C)N2CCOCC2)cc1Cl` [SGC-CBP30] (top concentration 25000 nM): the “selective drug sensitivity score” value is 1.88.

Regarding `CCS(=O)(=O)c1cccc(-c2cc(C(=O)NC3CCN(C)CC3)c(C)c3[nH]c4ncc(C)cc4c23)c1` [TAK-901] (top concentration 1000 nM), the “selective drug sensitivity score” value worked out at 5.36.

For `Nc1nc(NC2CC2)cc(-c2cccc(Cl)c2Cl)n1` [TH588] (top concentration 25000 nM), the “selective drug sensitivity score” value came to 3.92.

`CC(=O)Nc1ccc(C(=O)Nc2ccccc2N)cc1` [Tacedinaline] (top concentration 1000 nM): the “selective drug sensitivity score” value is -0.02.

As for `Cn1ncnc1[C@H]1c2n[nH]c(=O)c3cc(F)cc(c23)N[C@@H]1c1ccc(F)cc1` [Talazoparib] (top concentration 1000 nM), the “selective drug sensitivity score” value is -4.92.

Regarding `COc1cccc2c1c(O)c(C(=O)N(C)c1ccc(C(F)(F)F)cc1)c(=O)n2C` [Tasquinimod] (top concentration 10000 nM), the “selective drug sensitivity score” value was -0.42.

Consider `Nc1nc2[nH]cnc2c(=S)[nH]1` [Thioguanine] (top concentration 10000 nM), for which the “selective drug sensitivity score” value came out at 11.2.

Consider `CC#CC(=O)N1CC[C@@H](n2c(=O)n(-c3ccc(Oc4ccccc4)cc3)c3c(N)ncnc32)C1` [Tirabrutinib] (top concentration 1000 nM), for which the “selective drug sensitivity score” value worked out at 0.

As to `CC(C)C[C@@H](C(=O)N[C@H](C(=O)OC1CCCC1)c1ccccc1)[C@H](O)C(=O)NO` [Tosedostat] (top concentration 10000 nM), the “selective drug sensitivity score” value was -4.94.

Regarding `CS(=O)(=O)c1ccc(-c2cnc(N)c(C(=O)Nc3ccccc3)n2)cc1` [VE-821] (top concentration 10000 nM), the “selective drug sensitivity score” value came out at 5.04.

Take `CNC(=O)c1ccccc1Nc1cc(Nc2ccc(N3CCOCC3)cc2OC)ncc1C(F)(F)F` [VS-4718] (top concentration 10000 nM): the “selective drug sensitivity score” value is 1.7.

On to `Cc1cccc(-c2[nH]c(CNc3ccccc3F)nc2-c2ccc3ncnn3c2)n1` [Vactosertib (TEW-7197)] (top concentration 2500 nM), for which the “selective drug sensitivity score” value was -0.5.

As for `O=C(/C=C\n1cnc(-c2cc(C(F)(F)F)cc(C(F)(F)F)c2)n1)NNc1ccccn1` [Verdinexor] (top concentration 1000 nM), the “selective drug sensitivity score” value came to 1.84.

Regarding `CC[C@@H]1C(=O)N(C)c2cnc(Nc3ccc(C(=O)N[C@H]4CC[C@H](N5CCN(CC6CC6)CC5)CC4)cc3OC)nc2N1C(C)C` [Volasertib] (top concentration 1000 nM), the “selective drug sensitivity score” value came to 15.5.

As for `O=C(CCCCCCC(=O)Nc1ccccc1)NO` [Vorinostat] (top concentration 10000 nM), the “selective drug sensitivity score” value was determined as 6.

For a further test, the system named is NALM-16. The test is described as above. The settings on record: 72 h.
On to `CN(C)Cc1ccc(S(=O)(=O)n2ccc(/C=C/C(=O)NO)c2)cc1` [Resminostat] (top concentration 10000 nM), for which the “selective drug sensitivity score” value stood at 0.24.

For `COc1cc(OC)c(/C=C/S(=O)(=O)Cc2ccc(OC)c(NCC(=O)O)c2)c(OC)c1` [Rigosertib] (top concentration 10000 nM), the “selective drug sensitivity score” value was 12.8.

In the case of `COc1ccc(CCc2nc3cc(-c4c(C)noc4C)ccc3n2C[C@H](C)N2CCOCC2)cc1Cl` [SGC-CBP30] (top concentration 25000 nM), the “selective drug sensitivity score” value is 0.48.

For the molecule `CCS(=O)(=O)c1cccc(-c2cc(C(=O)NC3CCN(C)CC3)c(C)c3[nH]c4ncc(C)cc4c23)c1` [TAK-901] (top concentration 1000 nM), the “selective drug sensitivity score” value turned out to be 0.16.

Turning to `Nc1nc(NC2CC2)cc(-c2cccc(Cl)c2Cl)n1` [TH588] (top concentration 25000 nM), the “selective drug sensitivity score” value stood at 5.32.

For the molecule `CC(=O)Nc1ccc(C(=O)Nc2ccccc2N)cc1` [Tacedinaline] (top concentration 1000 nM), the “selective drug sensitivity score” value is -0.02.

For `Cn1ncnc1[C@H]1c2n[nH]c(=O)c3cc(F)cc(c23)N[C@@H]1c1ccc(F)cc1` [Talazoparib] (top concentration 1000 nM), the “selective drug sensitivity score” value was -2.82.

As for `COc1cccc2c1c(O)c(C(=O)N(C)c1ccc(C(F)(F)F)cc1)c(=O)n2C` [Tasquinimod] (top concentration 10000 nM), the “selective drug sensitivity score” value is -0.42.
